Test results from patent publication US20240228558A9, “PEPTIDES AND METHODS FOR THE TREATMENT OF NEUROMYELITIS OPTICA” (IMCYSE SA, priority 2021, published 2024).

Assays:
[1] = test system: peptide-specific CD4+ T cell lines of NMO patients; assay: Lytic marker Granzyme B in supernatant of overnight co-culture with autologous LCL; format: cell-based, human
Text: (§1) PBMCs are isolated from blood samples of patients with NMO on Lymphoprep density gradients. CD14+ monocytes are isolated from these PBMCs by performing positive immunomagnetic separation with CD14 microbeads (Miltenyi Biotec, 130-050-201) according to the supplier recommendations. CD14+ monocytes are differentiated for six days and maturated to generate autologous dendritic cells (mDC). CD19+ B cells are isolated from the CD14− PBMCs fraction by performing positive immunomagnetic separation with CD19 microbeads (Miltenyi Biotec, 130-050-301) according to the supplier recommendations. CD19+B cells are cultured and immortalized with EBV to generate autologous lymphoblastoid cell lines (LCL). Naïve CD4+ T cells are also purified from the CD14− PBMCs fraction by performing negative immunomagnetic separation with naïve CD4+ T cell isolation kit (Miltenyi Biotec, 130-094-131) according to the supplier recommendations. Naïve CD4+ T cells are co-cultured with autologous mDC or LCL in the presence of the peptides of table 1. The CD4+ T cells are re-stimulated periodically, about every 10-12 days, to generate peptide-specific cell lines.
(§2) LCL without (no peptide) or with the peptides of table 1. The expression of the lytic marker Granzyme B is also evaluated by flow cytometry analysis in the supernatant of overnight co-culture with autologous LCL without (no peptide) or with the peptides of table 1. Supernatants are analyzed with a BioLegend kit according to the supplier recommendations.

[2] = test system: autologous LCL (lymphoblastoid cell lines) used as antigen presenting cells; assay: Cytolytic activity: apoptosis of peptide-loaded autologous LCL co-cultured with peptide specific CD4+ T cells (Annexin V); format: cell-based, human
Text: as §1
The cytolytic activity of the peptide specific CD4+ T cells is evaluated by quantifying the apoptosis induced on LCL used as antigen presenting cells. Fluorescently labelled autologous LCL, loaded or not with the peptides, were overnight co-cultured at resting state with peptide specific CD4+ T cells, and LCL apoptosis was quantified by flow cytometry through Annexin V staining. Considering the apoptosis percentage of unloaded LCL, used as control, the percentage of specific apoptosis is calculated as follows: […]

[3] = test system: peptide-specific CD4+ T cell lines of NMO patients; assay: Flow cytometry of TCR induced surface activation marker CD154 after overnight co-culture with autologous LCL; format: cell-based, human
Text: as §1
The evaluation of the ability of the peptides of table 1 to generate peptide specific CD4+ T cells is evaluated by flow cytometry analysis of the TCR induced surface activation marker CD154 expression after overnight co-culture at resting state with autologous
as §2

[4] = Oxidoreductase activity of the immunogenic peptides, fluorescent assay (Tomazzolli et al.); format: biochemical; details: for time at which oxidoreductase activity reached a plateau: FIG. 1A; for oxidoreductase activity: reduction of self-quenched FITC peptides, mean of duplicates, read in RFU (FIGS. 1A-1E)
Text: The peptides of the invention comprise an MHC class II T-cell epitope or NKT cell epitope of AQP4 with a potential to trigger an immune reaction, and a modified oxidoreductase motif. The reducing activity of the motif sequence in the peptide can be assayed for its ability to reduce a sulfhydryl group such as in the insulin solubility assay wherein the solubility of insulin is altered upon reduction, or with a fluorescence-labelled substrate such as insulin. An example of such assay uses a fluorescent peptide and is described in Tomazzolli et al. (2006) Anal. Biochem. 350, 105-112. Two peptides with a FITC label become self-quenching when they covalently attached to each other via a disulfide bridge. Upon reduction by a peptide in accordance with the present invention, the reduced individual peptides become fluorescent again.
The oxidoreductase activity of the immunogenic peptides of table 1 was determined using a fluorescent assay described in Tomazzolli et al. (2006) Anal. Biochem. 350, 105-112. Two peptides with a FITC label become self-quenching when they form a covalent disulfide bond. Upon reduction by a peptide in accordance with the present invention, the reduced individual FITC labelled peptides emit fluorescence again. The activity is expressed as the mean of duplicates. The results are expressed in Relative Fluorescent Units (RFU).

[5] = test system: peptide-specific CD4+ T cell lines of NMO patients; assay: Cytokine secretion in CD4+ T cell culture supernatants (LEGENDplex Human Th Panel); format: cell-based
Text: as §1
The ability of the peptides of table 1 to induce cytokines secretion in CD4+ T cells culture supernatants is evaluated by flow cytometry analysis after overnight co-culture at resting state with autologous mDC or LCL without (no peptide) or with the peptides of table 1. Supernatants are analyzed with the LEGENDplex Human Th Panel (13-plex) (BioLegend, 740721) according to the supplier recommendations.

[6] = biological target: T1, soluble HLA-DRB1*03:01 (DR3) human MHC II protein (Homo sapiens, UniProt P01903+P01911, A100K/A102G/A103R/A169T/F55Y/I96L/K41T/L162R/M171V/P40S/Q125H/Q178H/Q39Y/R42S/S66N/T106N/T262R/W38E/Y61H); assay: Soluble phase competition binding assay to MHCII with biotin-labelled control peptide; details: competition with biotin-labelled high affinity control peptide, 18h, triplicates (FIGS. 2A-2E)
T1 construct: purchased Benaroya Research Institute, Seattle, US
Protocol: To test the binding of the immunogenic peptides of table 1 to MHCII molecules, a soluble phase competition assay is performed. The increasing concentrations of the peptides compete with biotin-labelled control peptide (high affinity binder of the corresponding MHCII molecule, Eurogentec, Seraing, Belgium) for binding to the soluble HLA-DRB1*03:01 (also named DR3) human MHC II protein (purchased from the Benaroya Research Institute, Seattle, US). As binding approaches its equilibrium (18h), biotin-labelled peptide/MHC II complexes are captured, separated from unbound reagents, and quantitatively detected by time-resolved fluorescence (Eu^3+ streptavidin, Perkin Elmer, Brussels, Belgium). Since the biotinylated control peptide is responsible for the fluorescence signal (Eu^3+ streptavidin/biotin interaction), the decrease in fluorescence intensity reflects the binding of tested peptides. Data are processed and plotted to ascertain dose-dependent binding properties of the peptides. All the tests are performed in triplicates.

[7] = P20-specific CD4+ T cell lines NMO-001, NMO-003, NMO-006 (FIGS. 8 and 9)
[8] = P20-specific CD4+ T cell line, patient NMO-001, after 14 stimulations (FIG. 6)
[9] = culture supernatant of P20-CD4+ cell line from patient NMO-006 (FIG. 5)
[10] = P12-specific CD4+ T cell line NMO-001 (FIG. 14)
[11] = P12-specific CD4+ T cell line, patient NMO-001 (FIG. 13)

AGGLYEYVFSPDVEFKRRFK [short-S-WT epitope, reference compound]
effector cells expressing the lytic marker Granzyme B [1, 7]: specific increase of effector cells expressing the lytic marker Granzyme B
percentage of specific LCL apoptosis [2, 8]: increase in the percentage of specific LCL apoptosis
reactivation of P20-specific CD4+ T cells (CD154+) ([3]; P20-specific CD4+ T cells of NMO-001 patient (FIG. 4)): could also be reactivated

HCPYCEYVFSPDVEFKRRFK [P20]
time at which oxidoreductase activity reached a plateau [4]: 5 min
specific secretion of cytokines (IL-5 and IL-13) [5, 9]: specific secretion of cytokines (IL-5 and IL-13) induced
effector cells expressing the lytic marker Granzyme B [1, 7]: specific increase of effector cells expressing the lytic marker Granzyme B
percentage of specific LCL apoptosis [2, 8]: increase in the percentage of specific LCL apoptosis
apoptosis of loaded LCL ([2]; P20-specific CD4+ T cell line, patient NMO-003, after 14 stimulations (FIG. 6)): Apoptosis of LCL loaded with P20 was also observed
LCL apoptosis ([2]; co-culture with CD4+ T cells of patient NMO-001 after 16 stimulations with P20 (FIG. 7)): 50%
frequency of effector cells (CD3+CD4+CD154+) ([3]; P20-specific CD4+ T cell lines of NMO patients -001 and -003 after multiple stimulations (FIG. 3)): high frequency of effector cells
binding to HLA-DRB1*03:01 [6]: bind to HLA-DRB1*03:01 with similar affinity

AGGLYEYVFCPDVEFKRRFK [short C-WT T-cell epitope, reference compound]
specific secretion of cytokines (IL-5 and IL-13) [5, 9]: specific secretion of cytokines (IL-5 and IL-13) induced
effector cells expressing the lytic marker Granzyme B [1, 7]: specific increase of effector cells expressing the lytic marker Granzyme B
cross-reactivity (LCL apoptosis) ([2]; CD4+ T cells of patient NMO-001 after 16 stimulations with P20 (FIG. 7)): lower

HCPYCRSQVETDDLILKPGVK [P22]
oxidoreductase activity [4]: displayed oxidoreductase activity, although to a lesser extend

HCPYCAVTVAMVCTRKISIAKK [P6]
binding to HLA-DRB1*03:01 [6]: less affinity than P12 and P20

HCPYCTVAMVSTRKISIAK [P3]
binding to HLA-DRB1*03:01 [6]: less affinity than P12 and P20

KVAMVCTRKISIAKSVFYIAAKK [short-WT epitope, reference compound]
effector cells expressing the lytic marker Granzyme B [1, 10]: specific increase of effector cells expressing the lytic marker Granzyme B
percentage of specific LCL apoptosis [2, 11]: increase in the percentage of specific LCL apoptosis
reactivation of P12-specific CD4+ T cells (CD154+) ([3]; P12-specific CD4+ T cells of NMO-001 patient (FIG. 11)): could also be reactivated

KHCPYCVFTIFASCDSKRTDVK [P18]
binding to HLA-DRB1*03:01 [6]: less affinity than P12 and P20

HCPYCVETIFASSDSKRTDVK (HCPYCVFTIFASSDSKRTDVK) [P15]
oxidoreductase activity [4]: displayed oxidoreductase activity, although to a lesser extend
binding to HLA-DRB1*03:01 [6]: less affinity than P12 and P20

HCPYCTRKISIAKSVFYIAAKKK [P12]
time at which oxidoreductase activity reached a plateau [4]: 5 min
specific secretion of cytokines (IL-5 and IL-13) ([5]; culture supernatant of P12-specific CD4+ cell lines (FIG. 12, NMO-003)): specific secretion of cytokines (IL-5 and IL-13) induced
effector cells expressing the lytic marker Granzyme B [1, 10]: specific increase of effector cells expressing the lytic marker Granzyme B
percentage of specific LCL apoptosis [2, 11]: increase in the percentage of specific LCL apoptosis
frequency of effector cells (CD3+CD4+CD154+) ([3]; P12-specific CD4+ T cell lines of NMO patients -001 and -003 after multiple stimulations (FIG. 10)): high frequency of effector cells
binding to HLA-DRB1*03:01 [6]: bind to HLA-DRB1*03:01 with similar affinity

HCPYCRENIMVAFKGVWTQAK [P1]
binding to HLA-DRB1*03:01 [6]: less affinity than P12 and P20
